Like-named read-outs stand apart in the source and are kept apart here.
Assays:
[1] = system: intracellular MRSA; format: cell-based, Staphylococcus aureus; details: for %GFP+ rep 1 / z-scoreMRSA+ rep 1: replicate 1; for %GFP+ rep 2 / z-scoreMRSA+ rep 2: replicate 2; for %GFP+ rep 3 / z-scoreMRSA+ rep 3: replicate 3; for z-scoreMRSA+ mean: mean of 3 replicates
Method in brief: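 HeLa, MRSA-GFP at MOI ~6.8, 1 h infection; gentamicin 30 µg/ml for 15 min; inhibitor plus gentamicin 5 µg/ml overnight, 37°C/5% CO2; triplicate plates; FACS %GFP+ and cell count; hit = z ≤ -2 MRSA+, z ≥ -3 count.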

[2] = system: HeLa cells; test: Compound screen by flow cytometry: HeLa cell count as surrogate readout of cell viability (z-scoreHeLa); format: cell-based, human
Method in brief: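 HeLa cells were infected with GFP-MRSA (mean MOI 6.8 ± 4.6) for 1 h, and extracellular bacteria were killed with 30 µg/ml gentamicin. Cells were then incubated overnight with kinase inhibitors in 5 µg/ml gentamicin, in triplicate against DMSO controls. Flow-cytometric cell count served as a viability surrogate, expressed as a plate z-score.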

[3] = PKIS compounds raw data, MRSA-infected HeLa cells
[4] = Yes/No: effect without cell death
[5] = compound screen, MRSA-infected HeLa cells
[6] = PKIS compounds raw data, replicate 1, HeLa cell count
[7] = PKIS compounds raw data, replicate 2, HeLa cell count
[8] = PKIS compounds raw data, replicate 3, HeLa cell count
[9] = PKIS compound screen raw data, MRSA-infected HeLa cells
[10] = PKIS compound screen, MRSA-infected HeLa cells
[11] = PKIS compound screen, Yes/No call (effect without cell death)
[12] = PKIS compound screen, Yes/No call on z-scoreMRSA+
[13] = PKIS compound screen raw data, HeLa cell count, replicate 1
[14] = PKIS compound screen raw data, HeLa cell count, replicate 2
[15] = PKIS compound screen raw data, HeLa cell count, replicate 3
[16] = PKIS compound screen, HeLa cell count, mean of 3 replicates
[17] = PKIS compound screen, HeLa cell count, replicate 1
[18] = PKIS compound screen, HeLa cell count, replicate 2
[19] = PKIS compound screen, HeLa cell count, replicate 3
[20] = PKIS compound screen, Yes/No call on z-scoreHeLa
[21] = PKIS compound screen, Yes/No call
[22] = PKIS compound screen, mean of 3 replicates
[23] = PKIS compound screen, replicate 1
[24] = PKIS compound screen, replicate 2
[25] = PKIS compound screen, replicate 3

| Compound | %GFP+ rep 1 [1, 3] [%] | %GFP+ rep 2 [1, 3] [%] | %GFP+ rep 3 [1, 3] [%] | cell count rep 1 [2, 6] | cell count rep 2 [2, 7] | cell count rep 3 [2, 8] | %GFP+ rep 1 [1, 9] [%] | %GFP+ rep 2 [1, 9] [%] | %GFP+ rep 3 [1, 9] [%] | z-scoreMRSA+ mean [1, 10] | z-scoreMRSA+ rep 1 [1, 10] | z-scoreMRSA+ rep 2 [1, 10] | z-scoreMRSA+ rep 3 [1, 10] | hit [1, 11] | effect [1, 12] | cell count rep 1 [2, 13] | cell count rep 2 [2, 14] | cell count rep 3 [2, 15] | z-scoreHeLa mean [2, 16] | z-scoreHeLa rep 1 [2, 17] | further results |
| --- | --- | --- | --- | --- | --- | --- | --- | --- | --- | --- | --- | --- | --- | --- | --- | --- | --- | --- | --- | --- | --- |
| Clc1ccc(CNc2nccc(-c3cnn4ncccc34)n2)cc1 [GW781673X] | 13.1 | 14.6 | 14.3 | 3767 | 3267 | 5990 | – | – | – | – | – | – | – | – | – | – | – | – | – | – | effect ([1]; Yes/No call from z-scoreMRSA+): No; hit [1, 4]: No; z-scoreMRSA+ mean [1, 5]: -0.04; z-scoreMRSA+ rep 1 [1, 5]: -0.0227; z-scoreMRSA+ rep 2 [1, 5]: 0.37; z-scoreMRSA+ rep 3 [1, 5]: -0.47; cell death ([2]; Yes/No call from z-scoreHeLa): No; z-scoreHeLa mean ([2]; human): -0.71; z-scoreHeLa rep 1 ([2]; human): -0.91; z-scoreHeLa rep 2 ([2]; human): -0.76; z-scoreHeLa rep 3 ([2]; human): -0.46 |
| CN(c1ccc2c(c1)nc(NCc1ccc(F)cc1)n2C)c1ccnc(Nc2ccc(CS(C)(=O)=O)cc2)n1 [GW813244A] | – | – | – | – | – | – | 19.9 | 20.6 | 22.3 | 0.68 | 0.65 | 0.62 | 0.76 | No | No | 29228 | 26803 | 36349 | -0.26 | 1.38 | z-scoreHeLa rep 2 [2, 18]: -1.49; z-scoreHeLa rep 3 [2, 19]: -0.67; cell death [2, 20]: No |
| Cc1ccc(O)cc1Nc1ccnc2ccc(S(C)(=O)=O)cc12 [GW559768X] | – | – | – | – | – | – | 8.1 | 10.1 | 9.8 | -2.90 | -3.11 | -2.53 | -3.05 | Yes | Yes | – | – | – | – | – | cell death [2]: No; cell count rep 1 ([2]; human): 30393; cell count rep 2 ([2]; human): 35205; cell count rep 3 ([2]; human): 44674; z-scoreHeLa mean ([2]; human): 0.77; z-scoreHeLa rep 1 ([2]; human): 1.56; z-scoreHeLa rep 2 ([2]; human): 0.08; z-scoreHeLa rep 3 ([2]; human): 0.66 |
| c1ccc(-c2ccc3c(Nc4ccc5[nH]ccc5c4)ccnc3c2)nc1 [GW440138A] | 35.0 | 36.6 | 38.8 | 7521 | 7813 | 7928 | – | – | – | – | – | – | – | No | – | – | – | – | – | – | effect [1, 21]: No; z-scoreMRSA+ mean ([1]; PKIS compound screen): 1.90; z-scoreMRSA+ rep 1 ([1]; PKIS compound screen): 1.55; z-scoreMRSA+ rep 2 ([1]; PKIS compound screen): 2.03; z-scoreMRSA+ rep 3 ([1]; PKIS compound screen): 2.14; cell death [2, 21]: No; z-scoreHeLa mean [2, 22]: 1.19; z-scoreHeLa rep 1 [2, 23]: 0.89; z-scoreHeLa rep 2 [2, 24]: 1.20; z-scoreHeLa rep 3 [2, 25]: 1.48 |
| COc1ccc(COc2ccc(Cc3cnc(N)nc3N)cc2OC)cc1 [GW632580X] | – | – | – | – | – | – | 19.0 | 19.0 | 21.7 | 0.36 | 0.36 | 0.14 | 0.58 | No | No | 16746 | 34970 | 43497 | -0.0017 | -0.51 | z-scoreHeLa rep 2 [2, 18]: 0.0341; z-scoreHeLa rep 3 [2, 19]: 0.47; cell death [2, 20]: No |
| Cc1cc(Cl)cc2c1NC(=O)C2=NNc1ccc(S(N)(=O)=O)cc1 [GW279320X] | 28.1 | 30.5 | 29.7 | 5783 | 6163 | 10033 | – | – | – | – | – | – | – | No | – | – | – | – | – | – | effect [1, 21]: No; z-scoreMRSA+ mean ([1]; PKIS compound screen): 4.85; z-scoreMRSA+ rep 1 ([1]; PKIS compound screen): 4.78; z-scoreMRSA+ rep 2 ([1]; PKIS compound screen): 5.69; z-scoreMRSA+ rep 3 ([1]; PKIS compound screen): 4.09; cell death [2, 21]: No; z-scoreHeLa mean [2, 22]: 1.27; z-scoreHeLa rep 1 [2, 23]: 0.91; z-scoreHeLa rep 2 [2, 24]: 1.43; z-scoreHeLa rep 3 [2, 25]: 1.47 |
| Cc1ccccc1CC(=O)N1CCc2cc(-c3cn(C)c4ncnc(N)c34)ccc21 [GSK2603346A] | – | – | – | – | – | – | 20.6 | 20.8 | 20.5 | 0.59 | 0.87 | 0.68 | 0.22 | No | No | 19984 | 27840 | 38532 | -0.54 | -0.02 | z-scoreHeLa rep 2 [2, 18]: -1.30; z-scoreHeLa rep 3 [2, 19]: -0.32; cell death [2, 20]: No |
| NS(=O)(=O)c1ccc(N/N=C2\C(=O)Nc3ccc(Cl)cc32)cc1 [GW280670X] | 35.3 | 49.2 | 20.4 | 4621 | 4629 | 7741 | – | – | – | – | – | – | – | No | – | – | – | – | – | – | effect [1, 21]: No; z-scoreMRSA+ mean ([1]; PKIS compound screen): 6.79; z-scoreMRSA+ rep 1 ([1]; PKIS compound screen): 7.09; z-scoreMRSA+ rep 2 ([1]; PKIS compound screen): 11.94; z-scoreMRSA+ rep 3 ([1]; PKIS compound screen): 1.34; cell death [2, 21]: No; z-scoreHeLa mean [2, 22]: 0.17; z-scoreHeLa rep 1 [2, 23]: -0.14; z-scoreHeLa rep 2 [2, 24]: 0.27; z-scoreHeLa rep 3 [2, 25]: 0.37 |
| CC(C(=O)NC1CCN(c2ccnc(Nc3ccc(F)cc3)n2)C1)c1ccc(Cl)cc1 (stereo not drawn) [GSK1379713A] | – | – | – | – | – | – | 27.3 | 23.1 | 24.4 | – | – | – | – | – | – | 6297 | 5528 | 7616 | – | – | effect ([1]; Yes/No call from z-scoreMRSA+): No; hit [1, 4]: No; z-scoreMRSA+ mean [1, 5]: 0.42; z-scoreMRSA+ rep 1 [1, 5]: 0.47; z-scoreMRSA+ rep 2 [1, 5]: 0.12; z-scoreMRSA+ rep 3 [1, 5]: 0.66; cell death ([2]; Yes/No call from z-scoreHeLa): No; z-scoreHeLa mean ([2]; compound screen, HeLa cell count, mean of 3 replicates): 1.28; z-scoreHeLa rep 1 ([2]; compound screen, HeLa cell count, replicate 1): 1.40; z-scoreHeLa rep 2 ([2]; compound screen, HeLa cell count, replicate 2): 0.94; z-scoreHeLa rep 3 ([2]; compound screen, HeLa cell count, replicate 3): 1.50 |
